{
  "source": "patent EP0417819A1",
  "about": "“Psycho-pharmacological peptides” (AKZO N.V., priority 1989, dated 1991)",
  "origin": "cited, not measured here",
  "note": "Entries after “also recorded” stand apart in the source; their conditions may differ.",
  "data": [
    {"test_system": "extinction of the (active) avoidance behaviour of rats", "settings": "pole climbing test, state of the art, result in words", "values": [
      {"substance": "a-endorphin", "extinction of the (active) avoidance behaviour": "inhibit the extinction of the avoidance behaviour; also recorded: retarded"},
      {"substance": "β-endorphin (YGGFMTSEKSQTPLVTLFKNAIIKNAYKKGE; Beta-endorphin; UniProt P01189 237-267, looked up) [(59-89) fragments of β-LPH]", "extinction of the (active) avoidance behaviour": "delays the extinction"},
      {"substance": "y-endorphin (YGGFMTSEKSQTPLVTL; Beta-endorphin; UniProt P01189 237-253, looked up, fragment) [β-endorphin (1-17)]", "extinction of the (active) avoidance behaviour": "accelerate the extinction of the avoidance behaviour"},
      {"substance": "met-enkephalin (YGGFM; Met-enkephalin; UniProt P01189 237-241, looked up) [smaller peptide fragment derived from β-endorphin]", "extinction of the (active) avoidance behaviour": "inhibit the extinction of the avoidance behaviour"}
    ]}
  ]
}
